Entries after “also recorded” stand apart in the source; their conditions may differ.
Experiments:
[1] = tested on: scale epithelial cells of mouse-tails; assay: Mouse-tail model: granular layer formation in scale epithelial cells; type: in vivo, Kunming mice; conditions: 1.0 mg/kg i.p. once every 2 days, 13 days
From the text: (§1) Materials: Meisoindigo was synthesized, purified and its structure characterized by Natrogen Therapeutics, Inc. The purity of the compound was 98.5% as described in the Examples above. A suspension of Meisoindigo was freshly prepared in 0.5% sodium methylcellulose and given orally for the animal tests described below. Other chemicals used in the following experiments were purchased from Sigma.
(§2) Pathogen-free female Kunming mice at 12 weeks of age with body weights from 22 to 25 grams were housed 5 per cage, and given, ad libitum, fresh tap water and commercial rodent pellets. Animal rooms were controlled at 24±2° C. with a relative humidity of 60±5% and a 12 hour light/dark cycle (07:00-19:00 hr).
Effect of Meisoindigo on Epidermal Cell Differentiation in Mouse Tails: Sixty female Kunming mice were randomly divided into 5 groups, 20 in one control group, and 10 in 4 drug-tested groups. Meisoindigo was freshly prepared as a suspension in 0.5% of sodium methylcellulose. The drug was given orally at doses of 50, 100, and 200 mg/kg, respectively, once a day for 13 days. Methotrexate (MTX) was used as a positive control at a dose of 1 mg/kg, i.p. once every 2 days, for the same period of time. The same volume and vehicle for Meisoindigo suspension were used as a negative control. […] Slides were prepared for histological examination as originally described by Bosman et. al., (106). The slides were prepared by cutting the tails into longitudinal sections, and Hematoxylin and Eosin (H&E) stained. The slides were then examined with a light microscope to evaluate the degree of orthokeratosis (OK) and epidermal hyperplasia. The former was done by measuring the horizontal length of the fully developed granular layer stratum granulosum within an individual scale in relation to its total length. Drug activity was defined by the increase of the positive scale cells containing granular layer stratum granulosum between two folliculus pili.

mouse vaginal epithelium = assay: Mitotic index in estrogen-stimulated vaginal epithelium of female mice; type: in vivo, Kunming mice; conditions: 1.0 mg/kg i.p. once a day, 3 days; percent of mitotic cells
From the text: as §1, §2
Anti-mitotic Effects of Meisoindigo on Mouse Vaginal Epithelium: Sixty Kunming female mice were randomly divided into 5 groups, 20 in one control group, and 10 in 4 drug-tested groups. All mice were given estrogen at a dose of 0.2 mg/animal for 3 days to allow vaginal epithelial cells to develop under the stimulation of estrogen hormone. Meisoindigo was freshly prepared as a suspension in 0.5% of sodium methylcellulose. The drug was given orally at doses of 50, 100, and 200 mg/kg, respectively, once a day for 3 days. Methotrexate (MTX) was used as a positive control at a dose of 1 mg/kg, i.p. once a day for the same period of time. […] The mitotic index (percent of mitotic cells) was calculated.

IL-1β = IL-1β secretion (ELISA) in LPS-stimulated THP-1 cells; type: cell-based, human; conditions: as low as 31.25 nM (31.25 and 62.5 nM in FIG. 6), 24 h
Method: It was prepared in a solution of dimethyl sulfoxide (DMSO), and stored under −20° C. for the experiments in vitro. Human monocytic cell line, THP-1 (90), was purchased from ATCC. The cells were maintained according to the supplier's instructions. Approximately 1×10^5 cells/ml were cultured at 37° C., 5% CO2 for 24 hours in Modified RPMI-1640 Medium (Invitrogen) supplemented with 10% FBS.
Viability of cells was examined under microscope after trypan blue staining. Protein levels of IL-1β secreted into the culture media by the cells were then measured by ELISA and calculated from its standard curve using an assay Kit from R&D Systems according to instructions provided by the supplier.
Statistical Analysis: All data were expressed as a mean±SD. Statistical significance of any difference between the control (LPS) and experimental groups was determined by the Student's t-test. P values between the 2 groups must be at least smaller than 0.05 to be considered statistically significant.
(§5) 1) Effects of Meisoindigo and NATURA on the expression/secretion of cytokines IL-1β, IL-6, IL-10: The human monocytic THP-1 cells grown exponentially were stimulated with or without 1 μM of lipopolysaccharide (LPS, Sigma), and exposed for 24 hours to different concentrations of Meisoindigo and NATURA (from 31.25 nM and 62.5 nM), respectively. Viability of cells was examined by trypan blue exception assay.

IL-6 = IL-6 secretion (ELISA) in LPS-stimulated THP-1 cells; type: cell-based, human; conditions: as low as 31.25 nM (31.25 and 62.5 nM in FIG. 6), 24 h
Method: (§6) Viability of cells was examined under microscope after trypan blue staining.
Standard IL-6 protein was used to establish a standard curve for the calculation of IL-6 in the medium secreted by the cells (LPS-stimulated or non-stimulated cells in the presence or absence of Meisoindigo).
as §5

IL-10 = IL-10 secretion (ELISA) in THP-1 cells; type: cell-based, human
From the text: as §6
Viability of cells was examined by trypan blue exception assay.

CDK2 = target: T1, CDK2 (Homo sapiens, UniProt P24941); assay: Cyclin dependent kinase activity in THP-1 cells (immunoprecipitation, histone H1 phosphorylation); type: cell-based; conditions: 24 h
T1 construct: endogenous in cells; host or cells: THP-1
Method: (§3) 2) Effects of Meisoindigo and/or NATURA on activity of cyclin dependent kinases (CDK) in THP-1 cells (99): THP-1 cells grown exponentially were exposed to […] of Meisoindigo or NATURA for 24 hr, respectively.
(§4) The cells were harvested, washed, and total proteins extracted as described previously (100). One hundred μg of the proteins were immuno-precipitated using antibodies against either cdk2, cdk4/6 or cyclin D1 overnight at 4° C. in the presence of a cocktail of protease inhibitors. The immuno-precipitates were washed 4 times with protein extraction buffer and once with kinase assay buffer, and reacted with […] histone H1 in the presence of [γ-^32P]-ATP (10 μCi/10 μM). The phosphorylated histone H1 (represent cdk activity) was measured by scintillation counting or by SDS-polyacrylaimde gel electrophoresis (101, 102).

cdk4/6 = assay: as above; type: cell-based, human; conditions: 31.25 and 62.5 nM, 24 h
Method: as §3, §4

cyclin D1 = assay: Cyclin D1 levels in THP-1 cells; type: cell-based, human; conditions: 31.25 and 62.5 nM, 24 h; data not shown
[2] = target: T2, glycogen synthase kinase-3β (GSK-3β) (Homo sapiens, UniProt P49841); assay: Effect on glycogen synthase kinase-3β in cells; type: cell-based; conditions: as high as 50 μM; data not shown
T2 construct: endogenous in cells
T2 sequence (P49841 whole entry): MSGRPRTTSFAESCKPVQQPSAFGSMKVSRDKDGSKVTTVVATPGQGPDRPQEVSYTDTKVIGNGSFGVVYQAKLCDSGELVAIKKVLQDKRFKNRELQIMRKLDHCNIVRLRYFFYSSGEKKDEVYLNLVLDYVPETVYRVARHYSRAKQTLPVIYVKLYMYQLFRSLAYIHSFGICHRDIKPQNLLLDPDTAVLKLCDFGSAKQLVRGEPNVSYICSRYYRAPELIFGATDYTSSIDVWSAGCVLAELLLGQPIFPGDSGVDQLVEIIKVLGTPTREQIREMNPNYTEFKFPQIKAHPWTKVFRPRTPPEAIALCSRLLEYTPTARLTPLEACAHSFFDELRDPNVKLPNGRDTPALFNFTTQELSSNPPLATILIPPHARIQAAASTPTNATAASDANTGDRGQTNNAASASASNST

## CN(Cc1cnc2nc(N)nc(N)c2n1)c1ccc(C(=O)N[C@@H](CCC(=O)O)C(=O)O)cc1 [MTX, Methotrexate, reference compound]
[1]
  Granulous Scales (X ± SD): 17.22 ± 4.92
Mouse vaginal epithelium
  Mitotic Index (X ± SD): 14.76±4.29

## CC(=O)OC1COC(N2C(=O)/C(=C3/C(=O)Nc4ccccc43)c3ccccc32)C(OC(C)=O)C1OC(C)=O (centres unmarked) [NATURA]
IL-1β
  effect on IL-1β production: significantly inhibit
IL-6
  effect on IL-6 production/secretion: significantly inhibit
IL-10; 31.25 and 62.5 nM, 24 h
  effect on IL-10 production: promoted production
IL-10; similar concentrations (as low as 31.25 nM), FIG. 6A
  elevation of LPS-suppressed IL-10: ~2 fold
CDK2; 1.5 μM, FIG. 6B
  partial inhibition of CDK activity: 23%
CDK2; 31.25 and 62.50 nM
  inhibition of CDK2 activity: failed to inhibit; also recorded: no inhibitory effect
cdk4/6
  inhibition of cyclin dependent kinase 4 and 6 activity: failed to inhibit
Cyclin D1
  effect on levels of cyclin D1: failed to inhibit
[2]
  activity on GSK-3β: no activity was observed

Reference: US20050154046A1, “Methods of treating an inflammatory-related disease” (priority 2004, published 2005)
